Values of other authors in patent publication EP4778980A1, “SILICONE MATERIAL, SILICONE TUBE, IMPLANT AND PREPARATION METHOD THEREFOR, ROD CORE, PERFORATED IMPLANT AND PREPARATION METHOD THEREFOR AND USE THEREOF” (SHENYANG XINGHUA PHARMACEUTICAL TECHNOLOGY CO., LTD, priority 2023, dated 2025).

Q: Which solubility does the source give for `Cc1nc2n(c(=O)c1CCN1CCC(c3noc4cc(F)ccc34)CC1)CCCC2O` (stereo not shown) [Paliperidone] here?
A: Paliperidone (98% purity) Mw = 426.48, 0.05 mg/ml
